From article PMC12362587, “Untargeted Diversity-Oriented Synthesis for the Discovery of New Antitumor Agents: An Integrated Approach of Inverse Virtual Screening, Bioinformatics, and Omics for Target Deconvolution” (Journal of Medicinal Chemistry, 2025)

Columns and labels:
human recombinant CB1R = human recombinant CB1R (Homo sapiens, UniProt P21554); assay: Competition binding assay, displacement of [3H]-CP-55,940; settings: displacement of [3H]-CP-55,940, HEK-293 membranes; read-out: EC50 or IC50, cannabinoid receptor 1
Procedure: Binding assays at equilibrium were conducted as described in Di Micco et al., 2024. […]. All compounds were evaluated following the manufacturer’s protocol (PerkinElmer distributed by Revvity, Italy). […] The K i values were calculated using the Cheng-Prusoff equation, based on the IC50 values obtained through GraphPad PRISM software (version 10.2.2). The results are expressed as K i (μM), represented as mean ± SEM, and reflect the average of three independent experiments performed in duplicate.

HEPG2 = assay: MTT cell viability assay; type: cell-based; settings: Homo sapiens, 24 h, compounds 0.01–40 μM, read-out: In Vitro Cytotoxicity, EC50 ± SD, HEPG2
Text: Initially, we phenotypically screened the synthesized compounds over a panel of tumor cell lines composed of HEPG2, A375, SHSY5Y, MCF7, and A549 derived from liver tumor, melanoma, neuroblastoma, breast cancer, and lung adenocarcinoma, respectively. We also considered the HaCaT cell line, coming from keratinocytes, as a healthy control line. As reference, cytotoxic chemotherapeutic agent 5-fluorouracil (5-FU) has been used. The results obtained performing the MTT (3-(4,5-dimethylthiazolyl-2)-2,5-diphenyltetrazolium bromide) assay are summarized in Table .
The human hepatoma HEPG2 cell line was obtained from American Type Culture Collection (ATCC, Rockville, MD, USA). Cells were grown in Eagle’s Minimum Essential Medium (EMEM) supplemented with 10% (v/v) fetal bovine serum (FBS), 2 mM L-glutamine, 1% (v/v) nonessential amino acids, 100 U/mL penicillin, and 0.1 mg/mL streptomycin.
Cell viability was established by measuring mitochondrial metabolic activity with MTT. In brief, HEPG2 (1 × 10^4 cells/well), A375 (2 × 10^3 cells/well), HaCaT (3 × 10^3 cells/well), A549 (3 × 10^3 cells/well), SHSY5Y (2 × 10^4 cells/well), and MCF 7 (5 × 10^3 cells/well) were plated into 96-well plates for 24 h, then the compounds (0.01–40 μM) were added. After 24h, cells were replaced with a fresh medium containing 0.5 mg/mL MTT. Cells were incubated 1–3 h at 37 °C, then the medium was discarded, and formazan blue crystals in the cells were dissolved in 100 μL per well of a solution containing isopropanol/HCl 0.1 M. The absorbance was measured at 570 nm using a microplate reader (Multiskan Go, Thermo Scientific, Waltham, MA, USA). Cell viability was expressed as a percentage relative to the untreated cells cultured in medium with 0.1% DMSO and set to 100%, whereas 10% DMSO was used as positive control and set to 0% of viability. The EC50 values were calculated using GraphPad Prism 8.0 software by nonlinear regression of dose–response inhibition.

A375 cells = assay: Annexin V-FITC staining (apoptosis, flow cytometry); type: cell-based, human; settings: 72 h
Procedure: Given the cytotoxic role of the compounds, an annexin V-FITC staining was performed to evaluate their effects on cell apoptosis.
Apoptosis of the cells was assessed using the Annexin V-FITC/PI reagents. A375 cells (3 × 10^4 cells/well) were seeded into 24-well plates and incubated for 72 h with compounds (5, 2.5, and 1.25 μM). After treatment, the collected cells were resuspended in a 100 μL assay buffer, then 5 μL Annexin V-FITC and 1 μL PI reagents were added following an incubation for 20 min at room temperature according to the manufacturer’s protocol (Dead Cell Apoptosis Kits with Annexin V for Flow Cytometry, Thermo Fisher Scientific). Cells were analyzed with a Becton Dickinson FACScan flow cytometer using the Cell Quest software, version 4 (Franklin Lakes, NJ, USA).

Thromboxane Synthase = target: T1, Thromboxane Synthase (Homo sapiens, UniProt P24557); assay: Enzymatic LeadHunter Assay; type: biochemical; settings: Eurofins enzymatic; read-out: EC50 or IC50, Thromboxane Synthase
T1 construct: Eurofins (contract assay)
Text: (§1) For displacement assays on G-protein coupled receptor 55 (GPR55), Vasopressin V2 receptor (V2R), Adenosine A1 receptor (A1AR), Fibroblast growth factor receptor 1 (FGFR1), Vascular endothelial growth factor receptor 2 (VEGFR2), Platelet-derived growth factor receptor beta (PDGFRB), Vascular endothelial growth factor receptor 1 (VEGFR1), Thromboxane Synthase (TXS) and Phosphodiesterase 10A (PDE10A), we commissioned the Eurofins company which employed its specific experimental methods, accessible at the link: https://www.eurofins.com/.

Phosphodiesterase 10A2 = target: T2, Phosphodiesterase 10A2 (Homo sapiens, UniProt Q9Y233); assay: Enzymatic LeadHunter Assay; type: biochemical; settings: Eurofins enzymatic; read-out: EC50 or IC50, Phosphodiesterase 10A2
T2 construct: Eurofins (contract assay)
Text: as §1

A1 Human Adenosine GPCR = target: T3, A1 Human Adenosine GPCR (Homo sapiens, UniProt P30542); assay: Binding Agonist Radioligand LeadHunter Assay; settings: Eurofins, read-out: EC50 or IC50, A1 Human Adenosine GPCR, agonist radioligand
T3 construct: Eurofins (contract assay)
T3 sequence (P30542 1-326): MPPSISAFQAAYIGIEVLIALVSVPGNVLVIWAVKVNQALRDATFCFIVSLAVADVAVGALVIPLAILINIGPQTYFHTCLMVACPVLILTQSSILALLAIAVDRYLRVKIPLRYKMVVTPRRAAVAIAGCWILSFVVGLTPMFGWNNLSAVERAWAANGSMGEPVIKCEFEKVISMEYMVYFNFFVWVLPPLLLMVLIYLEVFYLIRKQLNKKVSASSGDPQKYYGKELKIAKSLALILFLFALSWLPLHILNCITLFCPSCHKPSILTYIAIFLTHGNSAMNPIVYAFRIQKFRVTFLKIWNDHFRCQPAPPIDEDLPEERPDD
Text: as §1

[1] = target: T4, V2 Human Vasopressin/Oxytocin GPCR (Homo sapiens, UniProt P30518); assay: Binding Agonist Radioligand LeadHunter Assay; settings: Eurofins, read-out: EC50 or IC50, V2 Human Vasopressin/Oxytocin GPCR
T4 construct: Eurofins (contract assay)
Text: as §1

Chain of human recombinant CB1R (P21554 whole entry): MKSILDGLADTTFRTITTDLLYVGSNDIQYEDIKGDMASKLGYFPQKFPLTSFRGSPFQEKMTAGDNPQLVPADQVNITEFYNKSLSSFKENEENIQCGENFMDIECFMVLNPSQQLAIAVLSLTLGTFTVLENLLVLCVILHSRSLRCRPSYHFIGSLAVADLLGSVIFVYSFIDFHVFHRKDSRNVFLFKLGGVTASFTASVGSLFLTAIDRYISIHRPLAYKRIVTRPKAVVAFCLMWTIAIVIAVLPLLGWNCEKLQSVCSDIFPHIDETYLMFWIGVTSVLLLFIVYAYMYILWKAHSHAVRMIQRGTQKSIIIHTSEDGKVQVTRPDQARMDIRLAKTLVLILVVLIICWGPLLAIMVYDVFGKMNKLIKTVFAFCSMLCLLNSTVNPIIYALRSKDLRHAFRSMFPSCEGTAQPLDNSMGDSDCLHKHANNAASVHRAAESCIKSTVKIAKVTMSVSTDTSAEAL
T1 sequence (P24557 whole entry): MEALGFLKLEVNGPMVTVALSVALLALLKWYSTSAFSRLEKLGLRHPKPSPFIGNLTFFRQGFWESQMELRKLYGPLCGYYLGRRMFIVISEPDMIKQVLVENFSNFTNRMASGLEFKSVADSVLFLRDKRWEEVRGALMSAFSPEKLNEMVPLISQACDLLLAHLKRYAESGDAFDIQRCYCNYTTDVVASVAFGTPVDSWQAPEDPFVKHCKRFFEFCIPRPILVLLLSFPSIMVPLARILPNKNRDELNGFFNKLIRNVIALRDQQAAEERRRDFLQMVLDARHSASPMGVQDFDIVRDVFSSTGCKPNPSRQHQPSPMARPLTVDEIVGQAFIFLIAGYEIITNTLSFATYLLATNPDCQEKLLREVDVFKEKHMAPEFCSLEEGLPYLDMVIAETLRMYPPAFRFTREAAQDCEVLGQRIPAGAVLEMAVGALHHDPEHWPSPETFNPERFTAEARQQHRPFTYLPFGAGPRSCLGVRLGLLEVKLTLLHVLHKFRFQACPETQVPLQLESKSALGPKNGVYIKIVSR
T4 sequence (P30518 whole entry): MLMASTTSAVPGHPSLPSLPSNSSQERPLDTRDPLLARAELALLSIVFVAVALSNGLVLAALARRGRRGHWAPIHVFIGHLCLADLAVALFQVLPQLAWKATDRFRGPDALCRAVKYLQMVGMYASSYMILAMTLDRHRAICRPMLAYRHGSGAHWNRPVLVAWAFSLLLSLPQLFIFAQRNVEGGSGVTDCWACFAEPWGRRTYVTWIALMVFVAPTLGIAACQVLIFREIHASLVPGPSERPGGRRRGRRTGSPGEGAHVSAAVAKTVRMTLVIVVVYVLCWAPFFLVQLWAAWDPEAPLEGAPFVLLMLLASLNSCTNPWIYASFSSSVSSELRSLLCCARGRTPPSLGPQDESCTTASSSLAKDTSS
T2 sequence (Q9Y233 267-1055): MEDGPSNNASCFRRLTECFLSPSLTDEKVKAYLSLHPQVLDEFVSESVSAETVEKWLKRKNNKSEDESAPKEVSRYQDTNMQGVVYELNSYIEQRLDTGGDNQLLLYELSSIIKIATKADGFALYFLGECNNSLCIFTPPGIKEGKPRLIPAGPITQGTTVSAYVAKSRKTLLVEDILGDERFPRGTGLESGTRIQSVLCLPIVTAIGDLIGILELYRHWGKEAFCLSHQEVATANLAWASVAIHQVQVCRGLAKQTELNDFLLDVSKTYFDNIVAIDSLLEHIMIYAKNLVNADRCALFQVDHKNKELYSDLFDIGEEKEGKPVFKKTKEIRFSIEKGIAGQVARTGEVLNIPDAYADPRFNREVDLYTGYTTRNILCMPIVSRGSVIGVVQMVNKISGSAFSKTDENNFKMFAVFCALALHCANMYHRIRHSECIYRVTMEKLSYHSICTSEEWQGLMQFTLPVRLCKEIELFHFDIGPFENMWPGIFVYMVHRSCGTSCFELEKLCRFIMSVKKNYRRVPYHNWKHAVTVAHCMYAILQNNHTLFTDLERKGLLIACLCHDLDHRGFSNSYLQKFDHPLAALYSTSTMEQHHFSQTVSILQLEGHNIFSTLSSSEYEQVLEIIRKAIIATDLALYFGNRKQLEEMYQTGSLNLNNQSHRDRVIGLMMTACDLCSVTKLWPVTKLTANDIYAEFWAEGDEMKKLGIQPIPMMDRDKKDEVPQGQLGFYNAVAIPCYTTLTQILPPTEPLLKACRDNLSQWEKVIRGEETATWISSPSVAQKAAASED

IC50 (human recombinant CB1R) [µM] | IC50 (Thromboxane Synthase) [µM] | IC50 (Phosphodiesterase 10A2) [µM] | IC50 (A1 Human Adenosine GPCR) [µM] | IC50 [1] [µM] | SMILES | EC50 (HEPG2) [µM] | percentage of apoptotic cells (A375 cells; 1.25 μM) [%] | percentage of apoptotic cells (A375 cells; 2.5 μM) [%] | percentage of apoptotic cells (A375 cells; 5 μM) [%]
> 30 | ≥ 30 | ≥ 30 | ≥ 30 | ≥ 30 | CC(C)C[C@H]1C(=O)N(Cc2ccc(C(F)(F)F)cc2)c2ccccc2C(=O)N1Cc1ccc(C(F)(F)F)cc1 [Compound 31, (S)-3-Isobutyl-1,4-bis(4-(trifluoromethyl)benzyl)-3,4-dihydro-1H-benzo[e][1,4]diazepine-2,5-dione] | 12 ± 3.51 | 20.40 ± 4.56 | 81.10 ± 3.89 | 88.68 ± 2.10
> 30 | ≥ 30 | ≥ 30 | ≥ 30 | ≥ 30 | CC(C)C[C@@H](C(=O)OCc1ccccc1)N1Cc2ccccc2NC1=O [Compound 63, Benzyl (S)-4-Methyl-2-(2-oxo-1,4-dihydroquinazolin-3(2H)-yl)pentanoate] | 2.17 ± 0.96 | 16.52 ± 3.24 | 58.90 ± 1.89 | 71.25 ± 0.11
